From patent EP0037049A1, “Biphenylyl-imidazolylethane derivatives, process for their preparation and medicaments containing them” (BAYER AG, priority 1980, dated 1981)

These compounds were tested on Dermatophyten, Schimmelpilze, Hefen (assay: Antifungal in-vitro activity, serial dilution test). Conditions: incubation at 28°C, 24 h for yeasts, 96 h for dermatophytes and moulds, activity stated to be superior to prior-art compounds (A), (B), (C) and (D).
Format: cell-based
Description: Die in-vitro-Prüfung wurde im Reihenverdünnungstest mit Keiminokula von durchschnittlich […] Substrat durchgeführt. Als Nährmedium dienten • a) für Dermatophyten und Schimmelpilze: Sabourand's milieu d'epresive • b) für Hefen: • Isotonic Sensitest-Broth von Oxid.
Die Bebrütungstemperatur betrug 28°C; Bebrütungsdauer war 24 Stunden bei Hefen und 96 Stunden bei Dermatophyten und Schimmelpilzen.

Compound	Antimykotische in-vitro-Wirksamkeit (Wirkung)
Fc1ccccc1C(Cn1ccnc1)c1ccc(-c2ccccc2)cc1 (stereo not shown) [Beispiel 6]	sehr gute Wirkung
Clc1ccccc1C(Cn1ccnc1)c1ccc(-c2ccccc2)cc1 (stereo not shown) [Beispiel 5]	sehr gute Wirkung
Clc1ccc(-c2ccc(C(Cn3cncn3)c3ccccc3Cl)cc2)cc1 (stereo not shown) [Beispiel 8]	sehr gute Wirkung
Clc1cccc(C(Cn2ccnc2)c2ccc(-c3ccccc3)cc2)c1 (stereo not shown) [Beispiel 7]	sehr gute Wirkung
